Measured values reported in patent US9901592B2 (priority 2008, dated 2018).
Converted amounts (≈) assume the structure as drawn. “And” between values parts separate entries of the source, which are not always exact repeats. Equal entries are not always repeated. Where two headings read alike, the source gives them in different places. Marks after values point to notes of the source that are not given here.

Key:
S. aureus = format: cell-based
S. pneumoniae [1] = format: cell-based
group A streptococci = assay: microbe, parasite or virus in culture; format: cell-based, S. pyogenes
pneumococci = assay: microbe, parasite or virus in culture; format: cell-based, S. pneumoniae
S. pneumoniae [2] = assay: microbe, parasite or virus in culture; format: cell-based
M. catarrhalis = assay: microbe, parasite or virus in culture; format: cell-based
streptococci = assay: organism not typed; format: cell-based
M. pneumoniae = assay: microbe, parasite or virus in culture; format: cell-based; details: for MIC50 / MIC90: Mycoplasmoides pneumoniae
N. meningitidis = assay: MIC, CLSI broth microdilution, invasive isolates; format: cell-based; details: for % Res. / % Susc.: CLSI (M100-S19, 2009) criteria; for MIC / MIC50 / MIC90: Neisseria meningitidis, 62 N. meningitidis isolates
Experimental: Example. […] Colonization of the nasopharynx (NP) by NM can lead to invasive meningococcal disease. Chemoprophylaxis is used to eradicate NP colonization and prevent transmission to nonimmune contacts. […] 62 isolates (91.9% blood culture) of NM were collected from 29 medical centers in North and South America and Europe (1997-2008). […] Serological identification was performed for serogroups (SGs) B, C, Y and W135.

M. hominis = format: cell-based; details: M. hominis (13 isolates); for MIC50 / MIC90: Metamycoplasma hominis; for MIC50: read-out: MIC50; for MIC90: read-out: MIC90
U. parvum = assay: MIC testing in 10B broth (colour change); format: cell-based, Ureaplasma parvum; details: U. parvum (10 isolates); for MIC50 / MIC90: Ureaplasma parvum; for MIC50: read-out: MIC50; for MIC90: read-out: MIC90
M. genitalium = format: cell-based; details: M. genitalium (5 isolates)
U. urealyticum = assay: MIC testing in 10B broth (colour change); format: cell-based; details: U. urealyticum (10 isolates); for MIC50 / MIC90: Ureaplasma urealyticum
M. fermentans = format: cell-based; details: M. fermentans (15 isolates); for MIC50 / MIC90: Mycoplasmopsis fermentans
Legionella pneumophila = assay: microbe, parasite or virus in culture; format: cell-based, L. pneumophila
Mycobacterium bovis BCG = format: cell-based; details: DETA-NO-induced growth arrest
[3] = Streptococcus pneumoniae, pneumococci, L4 mutations (27)

CC[C@H]1OC(=O)[C@H](C)[C@@H](OC2CC(C)(OC)C(O)C(C)O2)[C@H](C)[C@@H](OC2OC(C)CC(N(C)C)C2O)[C@@](C)(OC)C[C@@H](C)C(=O)[C@H](C)[C@H]2N(CCCCn3cc(COc4c(Cl)cccc4Cl)nn3)C(=O)O[C@]12C (stereo partly shown) [Entry 20d]
MIC (S. aureus): 8 µg/mL (≈ 7.47 µM) | MIC (S. pneumoniae [1]): ≦0.0625 μg/mL

CC[C@H]1OC(=O)[C@H](C)[C@@H](OC2CC(C)(OC)C(O)C(C)O2)[C@H](C)[C@@H](OC2OC(C)CC(N(C)C)C2O)[C@@](C)(OC)C[C@@H](C)C(=O)[C@H](C)[C@H]2N(CCCCn3cc(-c4ccccn4)nn3)C(=O)O[C@]12C (stereo partly shown) [Entry 20a]
MIC (S. aureus): 8 µg/mL (≈ 8.22 µM) | MIC (S. pneumoniae [1]): ≦0.0625 μg/mL

COc1c(N2C[C@@H]3CCCN[C@@H]3C2)c(F)cc2c(=O)c(C(=O)O)cn(C3CC3)c12 [Moxi]
MIC50 (group A streptococci): 0.25 µg/mL (≈ 0.623 µM) | MIC90 (group A streptococci): 0.25 µg/mL (≈ 0.623 µM) | MIC Range (group A streptococci): 0.125 to 0.25 µg/mL and 0.125 to 0.5 µg/mL | MIC50 (pneumococci): 0.25 µg/mL (≈ 0.623 µM) | MIC Range (pneumococci): 0.125 to 4 µg/mL | MIC range (pneumococci): 0.125 to 8 µg/mL

quinupristin/dalfopristin [Q/D]
MIC 90% (S. pneumoniae [2]): 1 µg/mL | susceptible (S. pneumoniae [2]): 100.0% | MIC 90% (M. catarrhalis): 0.5 µg/mL | MIC 50% (streptococci): 0.5 µg/mL | MIC 90% (streptococci): 0.5 µg/mL and 1 µg/mL

amoxicillin/clavulanate
nonsusceptibility (S. pneumoniae [2]): 88.9% | MIC50 (group A streptococci): 0.03 µg/mL and <0.015 µg/mL and 0.015 µg/mL | MIC90 (group A streptococci): 0.03 µg/mL and 0.06 µg/mL | MIC Range (group A streptococci): 0.015 to 0.03 µg/mL and 0.03 µg/mL | MIC Range (pneumococci): 0.015 to 16 µg/mL | MIC50 (pneumococci; pneumococci, L4 mutations (27)): 4 µg/mL | MIC90 (pneumococci; pneumococci, L4 mutations (27)): 8 µg/mL | MIC range (pneumococci; pneumococci, L4 mutations (27)): 0.125 to 8 µg/mL

CC1(C)S[C@@H]2[C@H](NC(=O)Cc3ccccc3)C(=O)N2[C@H]1C(=O)O [Penicillin G]
MIC50 (group A streptococci): 0.015 µg/mL (≈ 0.0449 µM) | MIC90 (group A streptococci): 0.015 µg/mL and 0.03 µg/mL | MIC50 (pneumococci; pneumococci, L4 mutations (27)): 4 µg/mL (≈ 12 µM) | MIC90 (pneumococci; pneumococci, L4 mutations (27)): 16 µg/mL (≈ 47.8 µM)

CC[C@H]1OC(=O)[C@@](C)(F)C(=O)[C@H](C)[C@@H](OC2OC(C)CC(N(C)C)C2O)[C@@](C)(OC)C[C@@H](C)C(=O)[C@H](C)[C@H]2N(CCCCn3cc(-c4ccccn4)nn3)C(=O)O[C@]12C (stereo partly shown) [Entry 23a]
MIC (S. pneumoniae [1]): ≦0.125 μg/mL

C[C@H]1COc2c(N3CCN(C)CC3)c(F)cc3c(=O)c(C(=O)O)cn1c23 [Levofloxacin, levofloxacin]
MIC Range (M. pneumoniae): 0.125 to 1 µg/mL | MIC50 (M. pneumoniae): 0.5 µg/mL (≈ 1.38 µM) | MIC90 (M. pneumoniae): 0.5 µg/mL (≈ 1.38 µM) | % Res. (N. meningitidis): 0.0% | % Susc. (N. meningitidis): 100.0% | MIC (N. meningitidis): 0.008 to 0.015 µg/mL (≈ 0.0221 to 0.0415 µM) | MIC50 (N. meningitidis): ≤ 0.008 µg/mL | MIC90 (N. meningitidis): ≤ 0.008 µg/mL | MIC90 (group A streptococci): 0.5 µg/mL (≈ 1.38 µM) | MIC Range (group A streptococci): 0.5 to 1 µg/mL and 0.5 µg/mL | MIC50 (group A streptococci; Streptococcus pyogenes): 0.5 µg/mL (≈ 1.38 µM) | MIC90 (group A streptococci; Streptococcus pyogenes): 1 µg/mL (≈ 2.77 µM) | MIC (group A streptococci; Streptococcus pyogenes, read-out: MIC Range): 0.5 to 2 µg/mL (≈ 1.38 to 5.53 µM) | MIC Range (M. hominis): 0.125 to 0.5 µg/mL | MIC50 (M. hominis): 0.25 µg/mL (≈ 0.692 µM) | MIC90 (M. hominis): 0.5 µg/mL (≈ 1.38 µM) | MIC50 (pneumococci; [3]): 1 µg/mL (≈ 2.77 µM) | MIC90 (pneumococci; [3]): 2 µg/mL (≈ 5.53 µM) | MIC (pneumococci; Streptococcus pneumoniae, read-out: MIC range, pneumococci, L4 mutations (27)): 0.5 to 16 µg/mL (≈ 1.38 to 44.3 µM) | MIC Range (U. parvum): 0.125 to 2 µg/mL | MIC50 (U. parvum): 0.5 µg/mL (≈ 1.38 µM) | MIC90 (U. parvum): 2 µg/mL (≈ 5.53 µM) | MIC50 (streptococci): 1 µg/mL (≈ 2.77 µM) | MIC90 (streptococci): 1 µg/mL (≈ 2.77 µM) | MIC 90% (streptococci): 2 µg/mL (≈ 5.53 µM) | MIC Range (M. genitalium): 0.125 to 1 µg/mL | MIC Range (U. urealyticum): 0.5 to 2 µg/mL | MIC50 (U. urealyticum): 0.5 µg/mL (≈ 1.38 µM) | MIC90 (U. urealyticum): 1 µg/mL (≈ 2.77 µM) | MIC Range (M. fermentans): ≦0.008-0.25 μg/mL | MIC50 (M. fermentans): 0.031 µg/mL (≈ 0.0858 µM) | MIC90 (M. fermentans): 0.125 µg/mL (≈ 0.346 µM)

CO[C@H]1/C=C/O[C@@]2(C)Oc3c(C)c(O)c4c(O)c(c(/C=N/N5CCN(C)CC5)c(O)c4c3C2=O)NC(=O)/C(C)=C\C=C\[C@H](C)[C@H](O)[C@@H](C)[C@@H](O)[C@@H](C)[C@H](OC(C)=O)[C@@H]1C [Rifampin]
% Res. (N. meningitidis): 0.0% | % Susc. (N. meningitidis): 100.0% | MIC (N. meningitidis): 0.008 to 0.12 µg/mL (≈ 0.00972 to 0.146 µM) | MIC50 (N. meningitidis): 0.015 µg/mL (≈ 0.0182 µM) | MIC90 (N. meningitidis): 0.06 µg/mL (≈ 0.0729 µM) | MIC Range (Legionella pneumophila; LPN (30)): 0.03-0.06^a μg/ml | MIC50 (Legionella pneumophila; Legionella pneumophila): 0.03 µg/mL (≈ 0.0365 µM) | MIC90 (Legionella pneumophila; Legionella pneumophila): 0.03 µg/mL (≈ 0.0365 µM) | reduction of lethality by growth arrest (Mycobacterium bovis BCG): no effect

CC(=O)NC[C@H]1CN(c2ccc(N3CCOCC3)c(F)c2)C(=O)O1 [Linezolid, linezolid]
MIC90 (S. pneumoniae [2]; Streptococcus pneumoniae): 2 µg/mL (≈ 5.93 µM) | MIC Range (M. pneumoniae): 32 to 128 µg/mL | MIC50 (M. pneumoniae): 64 µg/mL (≈ 190 µM) | MIC90 (M. pneumoniae): 128 µg/mL (≈ 379 µM) | MIC Range (M. hominis): 1 to 8 µg/mL | MIC50 (M. hominis): 2 µg/mL (≈ 5.93 µM) | MIC90 (M. hominis): 4 µg/mL (≈ 11.9 µM) | MIC50 (U. parvum): > 256 µg/mL | MIC90 (U. parvum): > 256 µg/mL | MIC50 (streptococci): 1 µg/mL (≈ 2.96 µM) | MIC90 (streptococci): 2 µg/mL (≈ 5.93 µM) | MIC 90% (streptococci): 1 µg/mL (≈ 2.96 µM) | MIC Range (streptococci): 0.25 to 2 µg/mL and 0.5 to 2 µg/mL | MIC Range (M. genitalium): 4 to 128 µg/mL | MIC50 (U. urealyticum): > 256 µg/mL | MIC90 (U. urealyticum): > 256 µg/mL | MIC Range (M. fermentans): 0.5 to 4 µg/mL | MIC50 (M. fermentans): 1 µg/mL (≈ 2.96 µM) | MIC90 (M. fermentans): 4 µg/mL (≈ 11.9 µM)
